According to patent US5075289A, “9-R-azacyclic erythromycin antibiotics” (priority 1988, dated 1991):
≈ marks a conversion by molar mass, not a printed value. Where two headings read alike, the source gives them in different places.

Assays:
Type in all cases: cell-based
[1] = tested on: Staphylococcus epidermidis 3519; test: In vitro antibacterial activity, agar dilution MIC
Protocol: (§1) The antimicrobial spectra of a number of compounds of the invention were tested by the following method:
(§2) Twelve petri dishes containing successive aqueous dilutions of the test compound mixed with 10 ml of sterilized Brain Heart Infusion agar (Difco 0418-01-5) are prepared. Each plate is inoculated with 1:100 (or 1:10 for slow growing strains, primarily Micrococcus and Streptococcus) dilutions of up to 32 different microorganisms, using a Steers replicator block The inoculated plates are incubated at 35°-37° C. for 20-24 hours. In addition, a control plate, using BHI agar containing no test compound, is prepared and incubated at the beginning and end of each test.
(§3) An additional plate containing a compound having known susceptibility patterns for the organisms being tested and belonging to the same antibiotic class as the test compound is also prepared and incubated as a further control, as well as to provide test-to-test comparability. Erythromycin A was used for this purpose.
(§4) After incubation, each disk is read. The MIC is defined as the lowest concentration of drug yielding no growth, a slight haze, or sparsely isolated colonies on the inoculum spot as compared to the growth control.

[2] = tested on: Micrococcus luteus ATCC 4698; test: In vitro antibacterial activity, agar dilution MIC
Protocol: as §1, §2, §3, §4

[3] = tested on: Streptococcus bovis A5169; test: In vitro antibacterial activity, agar dilution MIC
Protocol: as §1, §2, §3, §4

[4] = tested on: Enterococcus faecium ATCC 8043; test: In vitro antibacterial activity, agar dilution MIC
Protocol: as §1, §2, §3, §4

[5] = tested on: Staphylococcus aureus CMX 553; test: In vitro antibacterial activity, agar dilution MIC
Protocol: as §1, §2, §3, §4

[6] = tested on: Staphylococcus aureus NCTC 10649; test: In vitro antibacterial activity, agar dilution MIC; conditions: NCTC10649
Protocol: as §1, §2, §3, §4

Escherichia coli H560 = test: In vitro antibacterial activity, agar dilution MIC
Protocol: as §1, §2, §3, §4

Staphylococcus aureus 45 = test: In vitro antibacterial activity, agar dilution MIC
Protocol: as §1, §2, §3, §4

[7] = tested on: Staphylococcus aureus 642A; test: In vitro antibacterial activity, agar dilution MIC; conditions: 642A
Protocol: as §1, §2, §3, §4

[8] = tested on: Staphylococcus aureus A5177; test: In vitro antibacterial activity, agar dilution MIC
Protocol: as §1, §2, §3, §4

[9] = tested on: Streptococcus agalactiae CMX 508; test: In vitro antibacterial activity, agar dilution MIC
Protocol: as §1, §2, §3, §4

Escherichia coli Juhl = test: In vitro antibacterial activity, agar dilution MIC
Protocol: as §1, §2, §3, §4

[10] = tested on: Streptococcus pyogenes 2548 INDUC; test: In vitro antibacterial activity, agar dilution MIC
Protocol: as §1, §2, §3, §4

Escherichia coli DC-2 = test: In vitro antibacterial activity, agar dilution MIC
Protocol: as §1, §2, §3, §4

[11] = tested on: Streptococcus pyogenes 930 CONST; test: In vitro antibacterial activity, agar dilution MIC
Protocol: as §1, §2, §3, §4

[12] = tested on: Streptococcus pyogenes EES61; test: In vitro antibacterial activity, agar dilution MIC
Protocol: as §1, §2, §3, §4

[13] = tested on: Micrococcus luteus ATCC 9341; test: In vitro antibacterial activity, agar dilution MIC
Protocol: as §1, §2, §3, §4

Escherichia coli SS = test: In vitro antibacterial activity, agar dilution MIC
Protocol: as §1, §2, §3, §4

[14] = tested on: Staphylococcus aureus ATCC 6538P; test: In vitro antibacterial activity, agar dilution MIC; conditions: ATCC6538P
Protocol: as §1, §2, §3, §4

[15] = tested on: Staphylococcus aureus 45 RAR 2; test: microbe, parasite or virus in culture; conditions: 45RAR2
Protocol: as §1, §2, §3, §4

[16] = tested on: Staphylococcus aureus CMX 503A; test: In vitro antibacterial activity, agar dilution MIC; conditions: CMX503A
Protocol: as §1, §2, §3, §4

[17] = tested on: Staphylococcus aureus CMX 686B; test: In vitro antibacterial activity, agar dilution MIC; conditions: CMX686B
Protocol: as §1, §2, §3, §4

[18] = ATCC4698, M. luteus ATCC 4698, Brain Heart Infusion agar, 20-24 hours, read-out: MIC
[19] = S. bovis A5169, Brain Heart Infusion agar, 20-24 hours, read-out: MIC
[20] = ATCC8043, E. faecium ATCC 8043, Brain Heart Infusion agar, 20-24 hours, read-out: MIC
[21] = E. coli H560, Brain Heart Infusion agar, 20-24 hours, read-out: MIC
[22] = S. aureus 45, Brain Heart Infusion agar, 20-24 hours, read-out: MIC
[23] = S. aureus A5177, Brain Heart Infusion agar, 20-24 hours, read-out: MIC
[24] = CMX508, S. agalactiae CMX 508, Brain Heart Infusion agar, 20-24 hours, read-out: MIC
[25] = E. coli Juhl, Brain Heart Infusion agar, 20-24 hours, read-out: MIC
[26] = S. pyogenes 2548 INDUC, Brain Heart Infusion agar, 20-24 hours, read-out: MIC
[27] = S. pyogenes EES61, Brain Heart Infusion agar, 20-24 hours, read-out: MIC
[28] = ATCC9341, M. luteus ATCC 9341, Brain Heart Infusion agar, 20-24 hours, read-out: MIC
[29] = E. coli SS, Brain Heart Infusion agar, 20-24 hours, read-out: MIC
[30] = S. epidermidis 3519, Brain Heart Infusion agar, 20-24 hours, read-out: MIC
[31] = CMX553, S. aureus CMX 553, Brain Heart Infusion agar, 20-24 hours, read-out: MIC
[32] = DC2, E. coli DC-2, Brain Heart Infusion agar, 20-24 hours, read-out: MIC
[33] = S. aureus ATCC 6538P, Brain Heart Infusion agar, 35-37° C., 20-24 hours, read-out: MIC

Structure (SMILES)	MIC [1]; 3519	MIC [3]	MIC ([5]; CMX553)	MIC [6]	MIC (Escherichia coli H560; H560)	MIC [7]	MIC (Escherichia coli DC-2; DC2)	MIC ([11]; 930CONST)	MIC [14]	MIC [15]	MIC [16]	MIC [2, 18]	MIC [4, 20]	MIC (Staphylococcus aureus 45; [22])	MIC [8, 23]	MIC [9, 24]	MIC (Escherichia coli Juhl; [25])	MIC [10, 26]	MIC [12, 27]	MIC (Escherichia coli SS; [29])	also measured
CC[C@H]1OC(=O)[C@H](C)[C@@H](O[C@H]2C[C@@](C)(OC)[C@@H](O)[C@H](C)O2)[C@H](C)[C@@H](O[C@@H]2O[C@H](C)C[C@H](N(C)C)[C@H]2O)[C@](C)(O)C[C@@H](C)[C@@H](N2CC2)[C@H](C)[C@@H](O)[C@]1(C)O [Example 4]	1.56 µg/mL (≈ 2.05 µM)	0.1 µg/mL (≈ 0.131 µM)	1.56 µg/mL (≈ 2.05 µM)	1.56 µg/mL (≈ 2.05 µM)	25 µg/mL (≈ 32.9 µM)	1.56 µg/mL (≈ 2.05 µM)	100 µg/mL (≈ 131 µM)	> 100 µg/mL	1.56 µg/mL (≈ 2.05 µM)	1.56 µg/mL (≈ 2.05 µM)											MIC ([2]; ATCC4698): 0.78 µg/mL (≈ 1.02 µM); MIC ([4]; ATCC8043): 0.2 µg/mL (≈ 0.263 µM); MIC (Staphylococcus aureus 45; 45): 0.78 µg/mL (≈ 1.02 µM); MIC ([8]; A5177): 6.2 µg/mL (≈ 8.15 µM); MIC ([9]; CMX508): 0.2 µg/mL (≈ 0.263 µM); MIC (Escherichia coli Juhl): > 100 µg/mL; MIC ([10]; 2548INDUC): 12.5 µg/mL (≈ 16.4 µM); MIC ([12]; EES61): 0.2 µg/mL (≈ 0.263 µM); MIC ([13]; ATCC9341): 0.1 µg/mL (≈ 0.131 µM); MIC (Escherichia coli SS): 0.78 µg/mL (≈ 1.02 µM)
CC[C@H]1OC(=O)[C@H](C)[C@@H](O[C@H]2C[C@@](C)(OC)[C@@H](O)[C@H](C)O2)[C@H](C)[C@@H](O[C@@H]2O[C@H](C)C[C@H](N(C)C)[C@H]2O)[C@](C)(O)C[C@@H](C)[C@@H](N2CCCCCC2)[C@H](C)[C@@H](O)[C@]1(C)O [Example 2]	0.39 µg/mL (≈ 0.477 µM)		0.39 µg/mL (≈ 0.477 µM)	0.39 µg/mL (≈ 0.477 µM)		0.39 µg/mL (≈ 0.477 µM)	12.5 µg/mL (≈ 15.3 µM)	> 100 µg/mL	0.39 µg/mL (≈ 0.477 µM)	0.39 µg/mL (≈ 0.477 µM)	0.39 µg/mL (≈ 0.477 µM)	0.1 µg/mL (≈ 0.122 µM)	0.02 µg/mL (≈ 0.0245 µM)	0.2 µg/mL (≈ 0.245 µM)	0.31 µg/mL (≈ 0.379 µM)	0.05 µg/mL (≈ 0.0612 µM)	0.1 µg/mL (≈ 0.122 µM)	12.5 µg/mL (≈ 15.3 µM)	0.05 µg/mL (≈ 0.0612 µM)	0.1 µg/mL (≈ 0.122 µM)	MIC [3, 19]: 0.02 µg/mL (≈ 0.0245 µM); MIC (Escherichia coli H560; [21]): 3.1 µg/mL (≈ 3.79 µM); MIC [13, 28]: 0.005 µg/mL (≈ 0.00612 µM)
CC[C@H]1OC(=O)[C@H](C)[C@@H](O[C@H]2C[C@@](C)(OC)[C@@H](O)[C@H](C)O2)[C@H](C)[C@@H](O[C@@H]2O[C@H](C)C[C@H](N(C)C)[C@H]2O)[C@](C)(O)C[C@@H](C)[C@@H](N2CCCC2)[C@H](C)[C@@H](O)[C@]1(C)O [Example 3]										1.56 µg/mL (≈ 1.98 µM)	1.56 µg/mL (≈ 1.98 µM)	0.78 µg/mL (≈ 0.989 µM)	0.39 µg/mL (≈ 0.494 µM)	0.78 µg/mL (≈ 0.989 µM)	25 µg/mL (≈ 31.7 µM)	0.2 µg/mL (≈ 0.253 µM)	> 100 µg/mL	50 µg/mL (≈ 63.4 µM)	0.1 µg/mL (≈ 0.127 µM)	0.39 µg/mL (≈ 0.494 µM)	MIC [1, 30]: 1.56 µg/mL (≈ 1.98 µM); MIC [3, 19]: 0.1 µg/mL (≈ 0.127 µM); MIC [5, 31]: 1.56 µg/mL (≈ 1.98 µM); MIC (Escherichia coli H560; [21]): 50 µg/mL (≈ 63.4 µM); MIC [17]: 1.56 µg/mL (≈ 1.98 µM); MIC (Escherichia coli DC-2; [32]): 100 µg/mL (≈ 127 µM); MIC ([11]; S. pyogenes 930 CONST, Brain Heart Infusion agar, 20-24 hours, read-out: MIC): > 100 µg/mL; MIC [13, 28]: 0.39 µg/mL (≈ 0.494 µM); MIC [14, 33]: 1.56 µg/mL (≈ 1.98 µM)
CC[C@H]1OC(=O)[C@H](C)[C@@H](O[C@H]2C[C@@](C)(OC)[C@@H](O)[C@H](C)O2)[C@H](C)[C@@H](O[C@@H]2O[C@H](C)C[C@H](N(C)C)[C@H]2O)[C@](C)(O)C[C@@H](C)[C@@H](N2CCN(C(C)=O)CC2)[C@H](C)[C@@H](O)[C@]1(C)O [Example 16]		0.1 µg/mL (≈ 0.118 µM)			50 µg/mL (≈ 59.1 µM)			> 100 µg/mL		3.1 µg/mL (≈ 3.66 µM)		1.56 µg/mL (≈ 1.84 µM)	0.78 µg/mL (≈ 0.922 µM)	1.56 µg/mL (≈ 1.84 µM)	50 µg/mL (≈ 59.1 µM)	0.39 µg/mL (≈ 0.461 µM)	> 100 µg/mL	50 µg/mL (≈ 59.1 µM)	0.1 µg/mL (≈ 0.118 µM)	1.56 µg/mL (≈ 1.84 µM)	MIC ([16]; S. aureus CMX 503A, Brain Heart Infusion agar, 20-24 hours, read-out: MIC): 1.56 µg/mL (≈ 1.84 µM); MIC [1, 30]: 1.56 µg/mL (≈ 1.84 µM); MIC [5, 31]: 1.56 µg/mL (≈ 1.84 µM); MIC ([17]; S. aureus CMX 686B, Brain Heart Infusion agar, 20-24 hours, read-out: MIC): 1.56 µg/mL (≈ 1.84 µM); MIC (Escherichia coli DC-2; [32]): > 100 µg/mL; MIC ([13]; ATCC9341, read-out: MIC): 0.2 µg/mL (≈ 0.236 µM); MIC [14, 33]: 1.56 µg/mL (≈ 1.84 µM)
